# Results published in patent publication US7205433B2, “Crystal of amino acid ester salt and process for producing the same” (Ajinomoto Co., Inc., priority 2002, dated 2007).
# How the values were obtained:
# Format in all cases: physicochemical
# [1] = Experimental Example 4: comparison of hygroscopicity by weight gain over time (40 to 46% RH); conditions: 24° C.
# Protocol: The L-Ala-OEt HCl salt, L-Ala-OEt MsOH salt, L-Ala-OEt BsOH salt, L-Ala-OEt 4-CBS salt, L-Ala-OEt 4-EBS salt, L-Ala-OEt 2,4-DMBS salt, and L-Ala-OEt 2,5-DMBS salt were measured in an amount of about 0.3 g each, left standing in a thermostatic chamber at a temperature of 24° C. and a humidity of 40 to 46% RH, and the hygroscopicity was compared based on the weight gain with the lapse of time. A part of the crystal of the L-Ala-OEt HCl salt was liquefied in 30 minutes, and the liquefied portion increased thereafter with the lapse of time. After 100 minutes, the whole mass became like a sherbet.
# [2] = Experimental Example 1: comparison of hygroscopicity by weight gain over time (44 to 45% RH); conditions: 22 to 24° C.
# Protocol: L-Ala-OEt HCl salt and L-Ala-OEt MsOH salt were measured into in a glass container in an amount of 1.6 g each, dried in vacuo at 30° C. for 5 hours, left under conditions of temperature: 22 to 24° C., humidity: 44 to 45% RH, and then the hygroscopicity was compared based on the weight gain over the lapse of time. […] The liquefied portion increased with the lapse of time, and the entire salt became liquid 750 minutes later with no observable crystal.
# [3] = Experimental Example 5: comparison of hygroscopicity by weight gain over time (60 to 66% RH); conditions: 24 EC
# Protocol: The L-Ala-OMe HCl salt, L-Ala-OEt MsOH salt, L-Ala-OEt BsOH salt, L-Ala-OEt 4-CBS salt, L-Ala-OEt 4-EBS salt, L-Ala-OEt 2,4-DMBS salt, and L-Ala-OEt 2,5-DMBS salt were measured in an amount of about 0.3 g each, left standing in a thermostatic chamber at a temperature of 24 EC and a humidity of 60 to 66% RH, and the hygroscopicity was compared based on the weight gain with the lapse of time.
# [4] = Experimental Example 7: evaluation of hygroscopicity by weight gain over time (60 to 66% RH); conditions: 24 EC
# Protocol: The L-Ala-OMe HCl salt, L-Ala-OMe 4-EBS salt, L-Ala-OMe 2,4-DMBS salt, and L-Ala-OMe 2,5-DMBS salt were measured in an amount of about 0.3 g each, left standing in a thermostatic chamber at temperature of 24 EC and a humidity of 60 to 66% RH, and the hygroscopicity was compared based on the weight gain with the lapse of time. A part of the crystal of the L-Ala-OMe HCl salt was liquefied in 10 minutes, and the entirety became a sherbet in 20 minute. The liquefied portion increased thereafter with the lapse of time. After 80 minutes, the whole was liquefied.
# [5] = Experimental Example 2: comparison of hygroscopicity by weight gain over time (62 to 64% RH); conditions: 24° C.
# Protocol: In the same manner as in Experimental Example 1, L-Ala-OEt MsOH salt and L-Ala-OMe HCl salt were measured into a glass container in an amount of 0.6 g each, left under conditions of temperature: 24° C., humidity: 62 to 64% RH, and then the hygroscopicity was compared based on the weight gain with the lapse of time.
smiles,measurement,setting,value
"CCOC(=O)[C@H](C)N.Cl [L-Ala-OEt HCl salt, alanine ethyl ester hydrochloride]",time until a part of the crystal was liquefied,[1],30 min
same,time until the whole mass became like a sherbet,[1],100 min
same,weight increase rate (%),[1]; 0 minutes,0.00%
same,weight increase rate (%),[1]; 15 minutes,2.63%
same,weight increase rate (%),[1]; 30 minutes,4.56%
same,weight increase rate (%),[1]; 45 minutes,6.42%
same,weight increase rate (%),[1]; 60 minutes,7.76%
same,weight increase rate (%),[1]; 75 minutes,8.82%
same,weight increase rate (%),[1]; 90 minutes,9.53%
same,weight increase rate (%),[1]; 120 minutes,9.89%
same,weight increase rate (%),[1]; 150 minutes,10.39%
same,weight increase rate (%),[1]; 180 minutes,10.69%
same,time to liquefaction of a part of the crystals,[2],60 min
same,time until the entire salt became liquid,[2],750 min
same,weight increase rate (% relative to initial weight),[2]; 0 minutes,0.00%
same,weight increase rate (% relative to initial weight),[2]; 1 minutes,1.63%
same,weight increase rate (% relative to initial weight),[2]; 2 minutes,1.67%
same,weight increase rate (% relative to initial weight),[2]; 3 minutes,1.72%
same,weight increase rate (% relative to initial weight),[2]; 4 minutes,1.73%
same,weight increase rate (% relative to initial weight),[2]; 6 minutes,1.80%
same,weight increase rate (% relative to initial weight),[2]; 10 minutes,1.95%
same,weight increase rate (% relative to initial weight),[2]; 15 minutes,2.07%
same,weight increase rate (% relative to initial weight),[2]; 25 minutes,2.29%
same,weight increase rate (% relative to initial weight),[2]; 35 minutes,2.55%
same,weight increase rate (% relative to initial weight),[2]; 50 minutes,2.88%
same,state of the crystals,[2]; 60 minutes,(partly liquefied)
same,weight increase rate (% relative to initial weight),[2]; 60 minutes,3.09%
same,weight increase rate (% relative to initial weight),[2]; 75 minutes,3.38%
same,weight increase rate (% relative to initial weight),[2]; 90 minutes,3.63%
same,weight increase rate (% relative to initial weight),[2]; 120 minutes,4.10%
same,weight increase rate (% relative to initial weight),[2]; 150 minutes,4.41%
same,weight increase rate (% relative to initial weight),[2]; 180 minutes,4.89%
same,state of the crystals,[2]; 750 minutes,(whole liquid)
same,weight increase rate (% relative to initial weight),[2]; 750 minutes,14.37%
"COC(=O)[C@H](C)N.Cl [L-Ala-OMe HCl salt, alanine methyl ester hydrochloride, reference compound]",time until a part of the crystal was liquefied,[3],35 min
same,time until the whole mass was like a sherbet,[3],125 min
same,weight increase rate (%),[3]; 0 minutes,0.00%
same,weight increase rate (%),[3]; 10 minutes,3.03%
same,weight increase rate (%),[3]; 20 minutes,4.85%
same,weight increase rate (%),[3]; 35 minutes,7.30%
same,weight increase rate (%),[3]; 50 minutes,8.84%
same,weight increase rate (%),[3]; 65 minutes,10.42%
same,weight increase rate (%),[3]; 80 minutes,11.65%
same,weight increase rate (%),[3]; 95 minutes,12.77%
same,weight increase rate (%),[3]; 110 minutes,13.69%
same,weight increase rate (%),[3]; 125 minutes,14.74%
same,weight increase rate (%),[3]; 140 minutes,15.46%
same,weight increase rate (%),[3]; 155 minutes,16.23%
same,weight increase rate (%),[3]; 170 minutes,16.88%
same,weight increase rate (%),[3]; 185 minutes,17.43%
same,weight increase rate (%),[3]; 200 minutes,17.77%
same,time until a part of the crystal was liquefied,[4],10 min
same,time until the entirety became a sherbet,[4],20 min
same,time until the whole was liquefied,[4],80 min
same,weight increase rate (%),[4]; 0 min,0.00%
same,state of the crystals,[4]; 10 min,(partly liquefied)
same,weight increase rate (%),[4]; 10 min,6.74%
same,state of the crystals,[4]; 20 min,(sherbet state)
same,weight increase rate (%),[4]; 20 min,10.06%
same,weight increase rate (%),[4]; 35 min,12.52%
same,weight increase rate (%),[4]; 50 min,14.31%
same,weight increase rate (%),[4]; 65 min,15.69%
same,state of the crystals,[4]; 80 min,(entirely liquefied)
same,weight increase rate (%),[4]; 80 min,17.16%
same,weight increase rate (%),[4]; 95 min,18.31%
same,weight increase rate (%),[4]; 110 min,19.42%
same,weight increase rate (%),[4]; 125 min,20.54%
same,weight increase rate (%),[4]; 140 min,21.66%
same,weight increase rate (%),[4]; 155 min,22.62%
same,weight increase rate (%),[4]; 170 min,23.55%
same,weight increase rate (%),[4]; 185 min,24.41%
same,weight increase rate (%),[4]; 200 min,25.14%
same,time to liquefaction of a part of the crystals,[5],20 min
same,time until the entire salt became liquid,[5],155 min
same,weight increase rate (% relative to initial weight),[5]; 0 minutes,0.00%
same,weight increase rate (% relative to initial weight),[5]; 10 minutes,0.11%
same,state of the crystals,[5]; 20 minutes,(partly liquefied)
same,weight increase rate (% relative to initial weight),[5]; 20 minutes,0.54%
same,weight increase rate (% relative to initial weight),[5]; 35 minutes,1.04%
same,weight increase rate (% relative to initial weight),[5]; 50 minutes,1.67%
same,state of the crystals,[5]; 65 minutes,(whole sherbet)
same,weight increase rate (% relative to initial weight),[5]; 65 minutes,2.27%
same,weight increase rate (% relative to initial weight),[5]; 80 minutes,2.83%
same,weight increase rate (% relative to initial weight),[5]; 95 minutes,3.36%
same,weight increase rate (% relative to initial weight),[5]; 110 minutes,3.97%
same,weight increase rate (% relative to initial weight),[5]; 125 minutes,4.54%
same,weight increase rate (% relative to initial weight),[5]; 140 minutes,5.13%
same,state of the crystals,[5]; 155 minutes,(whole liquid)
same,weight increase rate (% relative to initial weight),[5]; 155 minutes,5.48%
same,weight increase rate (% relative to initial weight),[5]; 170 minutes,6.02%
same,weight increase rate (% relative to initial weight),[5]; 185 minutes,6.56%
same,weight increase rate (% relative to initial weight),[5]; 200 minutes,7.03%
